Results published in paper PMC2697495 (The Journal of pharmacy and pharmacology, 2008).
Marks after values point to notes of the source that are not given here.

What was measured:
human kidney microsomes = assay: Estradiol glucuronide formation in 6 hours by human kidney microsomes; format: in vitro ADME; details: for Apparent nmoles formed in 6 hours: kidney microsomes 0.5 mg protein/ml, β-estradiol 100 μM and UDPGA, mean of triplicate; for Predicted actual nmoles formed in 6 hours: kidney microsomes, apparent formed plus degraded
[1] = system: endogenous β-glucuronidase, HEK293 vector control; assay: Estradiol glucuronide hydrolysis by HEK293 vector control cell microsomes; format: in vitro ADME, human; details: HEK293 control 0.25 mg/ml; without saccharolactone; E-3-G 100 μM, E-17-G 200 μM; n=3
[2] = system: human intestinal microsomes; assay: Estradiol glucuronide formation in 6 hours by human intestinal microsomes; format: in vitro ADME; details: for Apparent nmoles formed in 6 hours: intestinal microsomes 0.5 mg protein/ml, β-estradiol 100 μM and UDPGA, mean of triplicate; for Predicted actual nmoles formed in 6 hours: intestinal microsomes, apparent formed plus degraded
[3] = system: endogenous β-glucuronidase, human intestinal microsomes; assay: Estradiol glucuronide hydrolysis by human intestinal microsomes; details: for Nmoles degraded as a % of nmoles formed: intestinal microsomes; for Nmoles degraded in 6 hours: intestinal microsomes 0.5 mg protein/ml, estradiol glucuronide without UDPGA; for percent glucuronide remaining after 6 hours: intestine microsomes 0.5 mg/ml, without saccharolactone, E-3-G 100 μM, E-17-G 200 μM, n=3
[4] = molecular target: T1, endogenous β-glucuronidase, pooled human liver microsomes (Homo sapiens, UniProt P08236); assay: Estradiol glucuronide hydrolysis; details: for percent glucuronide remaining after 6 hours: pHLM 0.5 mg/ml, E-3-G 100 μM, E-17-G 200 μM, n=3; for Nmoles degraded as a % of nmoles formed: pHLMs; for Nmoles degraded in 6 hours: pHLMs 0.5 mg protein/ml, estradiol glucuronide without UDPGA
T1 sequence (P08236 23-651): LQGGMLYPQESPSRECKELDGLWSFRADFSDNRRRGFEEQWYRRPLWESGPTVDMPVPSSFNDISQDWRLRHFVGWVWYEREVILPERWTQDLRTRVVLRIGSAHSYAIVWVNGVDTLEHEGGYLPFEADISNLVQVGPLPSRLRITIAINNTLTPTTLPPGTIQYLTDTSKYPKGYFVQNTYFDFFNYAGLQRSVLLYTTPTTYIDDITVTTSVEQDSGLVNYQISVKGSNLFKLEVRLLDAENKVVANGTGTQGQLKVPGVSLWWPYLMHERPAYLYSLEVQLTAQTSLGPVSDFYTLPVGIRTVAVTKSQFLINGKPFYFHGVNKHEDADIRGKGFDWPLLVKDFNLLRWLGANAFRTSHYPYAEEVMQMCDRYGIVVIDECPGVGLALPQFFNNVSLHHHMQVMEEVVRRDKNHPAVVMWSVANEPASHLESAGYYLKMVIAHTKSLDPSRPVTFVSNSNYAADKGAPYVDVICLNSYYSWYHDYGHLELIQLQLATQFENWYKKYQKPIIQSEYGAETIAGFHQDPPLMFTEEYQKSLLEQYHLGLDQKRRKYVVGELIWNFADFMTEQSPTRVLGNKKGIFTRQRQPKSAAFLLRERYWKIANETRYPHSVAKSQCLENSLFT

[5] = system: pooled human liver microsomes (pHLMs); details: pHLMs 0.5 mg protein/ml; β-estradiol 100 μM and UDPGA; mean of triplicate
[6] = molecular target: endogenous β-glucuronidase, human lung microsomes (Homo sapiens, UniProt P08236); assay: Estradiol glucuronide hydrolysis by human lung microsomes; details: lung microsomes 0.5 mg/ml; without saccharolactone; E-3-G 100 μM, E-17-G 200 μM; n=3
[7] = system: endogenous β-glucuronidase, human kidney microsomes; assay: Estradiol glucuronide hydrolysis by human kidney microsomes; details: for Nmoles degraded as a % of nmoles formed: kidney microsomes; for Nmoles degraded in 6 hours: kidney microsomes 0.5 mg protein/ml, estradiol glucuronide without UDPGA; for percent glucuronide remaining after 6 hours: kidney microsomes 0.5 mg/ml, without saccharolactone, E-3-G 100 μM, E-17-G 200 μM, n=3
[8] = Estradiol glucuronide stability in phosphate buffer; details: 50 mM phosphate buffer pH 7.5, 37 °C, no enzyme; without saccharolactone; E-3-G 100 μM, E-17-G 200 μM; n=3
microsomes = details: 50 μg alamethicin per mg microsomal protein, ref Fisher et al 2000; cited from earlier work

Row | Molecule | Apparent nmoles formed in 6 hours (human kidney microsomes) [nmol] | Predicted actual nmoles formed in 6 hours (human kidney microsomes) [nmol] | percent glucuronide remaining after 6 hours [1] [%] | Apparent nmoles formed in 6 hours [2] [nmol] | Predicted actual nmoles formed in 6 hours [2] [nmol] | Nmoles degraded as a % of nmoles formed [3] [%] | Nmoles degraded in 6 hours [3] [nmol] | percent glucuronide remaining after 6 hours [3] | percent glucuronide remaining after 6 hours ([4]; with 10 mM saccharolactone) | percent glucuronide remaining after 6 hours ([4]; without saccharolactone) | Nmoles degraded in 6 hours [4] [nmol] | Apparent nmoles formed in 6 hours [5] [nmol] | percent glucuronide remaining after 6 hours [6] [%] | Nmoles degraded as a % of nmoles formed [7] [%] | Nmoles degraded in 6 hours [7] [nmol] | percent glucuronide remaining after 6 hours [7] | percent glucuronide remaining after 6 hours [8] [%] | further results
1 | C[C@]12CC[C@@H]3c4ccc(O[C@@H]5O[C@H](C(=O)O)[C@@H](O)[C@H](O)[C@H]5O)cc4CC[C@H]3[C@@H]1CC[C@@H]2O [E-3-G, estradiol 3-glucuronide] | 2.99 | 2.99 | 102±4 | 16.7 | 16.7 | 0 | 0 | 104±3% | 84±2 ^a % | 82±1 ^a^, ^b % | 0.36 | 3.51 | 85±6 | 0 | 0 | 104±1 ^a^, ^b % | 101±5 | Nmoles degraded as a % of nmoles formed [4]: 9.30%
2 | alamethicin |  |  |  |  |  |  |  |  |  |  |  |  |  |  |  |  |  | conjugation rate relative to that in absence of alamethicin (microsomes): 2 to 3 times
3 | C[C@]12CC[C@@H]3c4ccc(O)cc4CC[C@H]3[C@@H]1CC[C@@H]2O[C@@H]1O[C@H](C(=O)O)[C@@H](O)[C@H](O)[C@H]1O [E-17-G, estradiol 17-glucuronide] | 1.11 | 1.11 | 104±3 | 0.58 | 0.58 | 0 | 0 | 110±4 ^b % | 84±3% | 86±2 ^b % | 0.29 | 1.23 | 92±6 | 0 | 0 | 104±3% | 102±13 | Nmoles degraded as a % of nmoles formed ([4]; listed as Estradiol-17-Glucuronide): 19%; Nmoles degraded as a % of nmoles formed ([4]; listed as estradiol-17 glucuronide): 19%
